Reference: patent US7629318B2, “Immunosuppressant compounds, methods and uses related thereto” (priority 2002, dated 2009)
Square brackets hold non-standard residues; d marks the D form. Peptide text beside a SMILES is read from it. * marks the point of attachment. Gly(1-amidinopiperidin-4-yl) = N=C(N)N1CCC([C@H](N)C(=O)O)CC1; Tic = O=C(O)[C@@H]1Cc2ccccc2CN1; Cha = N[C@@H](CC1CCCCC1)C(=O)O; NHPhenethyl = c1ccc(CCN*)cc1; NMe(benzyl) = CN(Cc1ccccc1)*; Nle = CCCC[C@H](N)C(=O)O

Legend:
[1] = tested on: T cell activation from 0401(DR4) chimeric MHCII-mice; experiment: In vivo inhibition of T cell activation by co-immunisation, DR4 mice immunised with HEL; set-up: species or system mouse; % Reduction of response to PPD(HEL): concentration or dose not given beside the values; settings: for % Reduction of response to HEL: DR4 mice co-immunised with HEL plus compound, mean % inhibition from the control over 3 concentrations of antigen (6.7, 20 and 60 ug); for % Reduction of response to PPD(HEL): specificity control: response to PPD in the same cell pool, HEL co-immunised mice
Source text: Mouse strains DR4 and DR14 carry chimeric MHC-II transgenes that encode the N-terminal domains of the respective DR molecules (forming the peptide binding site) and the remaining (2nd extracellular domains, transmembrane and intracytoplasmic domains) of the murine class II molecule I Ed. These strains are deficient of other murine class II, and thus, all helper T cell responses are triggered by peptides presented in the respective human MHC-II binding site. As an initial in vivo test of subject inhibitors designed to bind to DR, DR-transgenic mice were co-immunized with a pre-defined dose of protein antigen and different amounts of the compound antagonist to be tested. In this set-up, both antigen and compound were emulsified together in complete Freund's adjuvant (CFA), and thus, a direct competition between the two components for presentation by DR was tested. Readout of the assay is ex vivo antigen-specific activation of T cells from regional lymph nodes explanted 9 days after co-immunization. In a typical experiment, antigen dose-response was investigated, and the curves from mice immunized with antigen were compared to those from mice co-immunized with antigen+compound. The dose response curves were generated using lymph node cells pooled at equal numbers from 2-3 mice per experimental group. The experimental system also permits assessment of inherent antigenicity of the compound antagonist. This was done by setting up a dose-response study from the same cell pool using different concentrations of the compund under investigation instead of the antigen. As a specificity control, the response to Purified Protein Derivative (PPD), the major protein component of CFA, was tested in the same cell pool.
All Gpg conataining compounds have significant immunosupressive properties in one or both of the in-vivo models. Gpg-containing compounds also show improved activity or improved specificity over the Arg-containing equivilent. Further, compounds according to Formula I show activity in this assay.
Compounds of the invention were injected as an Emulsion prepared using CFA (Bacto Adjuvant Complete H37 Ra, Difco, Order-No. 3113-60); proteins 10 mg/ml in PBS, inhibitors 5 μM in 10% DMSO. CFA, PBS, antigen, and inhibitor were placed in the barrel of a 5-ml syringe (total volume not more than 1 mL). The mixture was sonicated at an amplitude less than 40% (30-35%) for two separated 15 s periods. The emulsion should seem to be hard and not liquid at this point. A drop of emulsion placed on the surface of water should not melt. The resulting emulsion was pushed through the needle into a 1 ml syringe with a needle (Gr.18, 26G×1″), and air bubbles were removed. Mice were co-immunized with 50 μg protein and 210 nM compound antagonist in final 100 μl emulsion into the tail base. Antigen+Compound and CFA are mixed 1:1 vol/vol. The best results are obtained using DR 4 mice immunised with HEL and DR 14 mice immunized with OVA.
Mice were injected at the tail-base as follows: Holding the tail of a mouse with thumb and middle finger, the index finger was placed under the base of the mouse's tail. The needle of the syringe was inserted about 1.5 cm from the tail base (hairy end) under the skin and pushed about 1 cm into the tail. 100 μl emulsion was injected into the mouse. After 9 days, mice were killed and lymph nodes removed.
The inhibitory effect of the candidate compounds on T-cell activation was tested using T-cells and antigen-presenting cells isolated from the lymph nodes of chimeric DR4-IE transgenic mice (Taconic, USA) previously co-immunized with hen egg lysozyme plus compound, or DR14-IE transgenic mice co-immunized with ovalbumin plus compound according to standard procedures (Adorini et al., 1988, Mueller et al., 1990; Current Protocols in Immunology, Vol. 2, 7.21; Ito et al., 1996). […]

[2] = tested on: T cell activation from 0404(DR14) chimeric MHCII-mice; experiment: In vivo inhibition of T cell activation by co-immunisation, DR14 mice immunised with OVA; set-up: species or system mouse; % Reduction of response to PPD(OVA): concentration or dose not given beside the values; settings: for % Reduction of response to OVA: DR14 mice co-immunised with OVA plus compound, mean % inhibition from the control over 3 concentrations of antigen (6.7, 20 and 60 ug); for % Reduction of response to PPD(OVA): specificity control: response to PPD in the same cell pool, OVA co-immunised mice
Procedure, shortened: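 DR4 or DR14 chimeric MHC-II transgenic mice were co-immunised at the tail base with 50 μg HEL (DR4) or OVA (DR14) plus 210 nM compound, emulsified in CFA. After 9 days, pooled lymph node cells from 2–3 mice per group were tested for T-cell proliferation across an antigen dose range, compared with antigen-only immunisation; PPD served as a specificity control.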

[3] = tested on: HLA-DR1 transgenic mice, collagen induced arthritis; experiment: Collagen induced arthritis (CIA) mouse model for rheumatoid arthritis; format: in vivo; settings: compared to solvent as control; s.c.
Protocol: CIA is induced by immunization with type II collagen in HLA-DR1 transgenic mice as described by Rosloniec et al (J. Exp. Med. 1997; 185: 113). After disease onset, mice are treated with compounds at the maximal tolerated dose s.c. for two weeks, and the disease development compared to that in mice treated with solvent only as follows:
Disease Severity Score • 1. Erythema and mild swelling confined to the tarsals or ankle joint • 2. Erythema and mild swelling extending from the ankle to the tarsals • 3. Erythema and moderate swelling extending from the ankle to the metatarsal joints • 4. Erythema and severe swelling encompass the ankle, foot, and digits

[4] = tested on: DR4 transgenic mice, EAE induced by MOG; experiment: Experimental autoimmune encephalomyelitis (EAE) mouse model for multiple sclerosis; format: in vivo; settings: for efficacy in the EAE mouse model for multiple sclerosis prevention: compared to solvent as control, s.c.
Protocol: EAE is induced in DR4 transgenic mice by injection of myelin oligodendrocyte glycoprotein (MOG) as described by Ito et al. (1996). After disease onset, mice are treated with compounds and studied as below:
Disease Score • 1. Tail atony • 2. Hind limb weakness • 3. Hind limb paralysis • 4. Hind limb paralysis and fore limb weakness or paralysis • 5. Moribund

In the case of `CCCC[C@H](NC(=O)[C@@H]1Cc2ccccc2CN1C(=O)[C@@H](NC(=O)[C@H](CC1CCCCC1)NC(C)=O)C1CCN(C(=N)N)CC1)C(=O)NCCc1ccccc1` [Compound P69, Ac-Cha-Gpg-Tic-Nle-N(H)CH2CH2Ph] (Ac-[Cha][Gly(1-amidinopiperidin-4-yl)][Tic][Nle]-NHPhenethyl), the “% Reduction of response to HEL” value [1] is reported as 59%, the “% Reduction of response to PPD(HEL)” value [1] is reported as 2% and the “% Reduction of response to OVA” value [2] is reported as 65.3%. For the same molecule, the “in-vivo immunosuppressive properties following co-immunisation with antigen as measured by T-cell proliferation” value ([2]; compared to the Arg-containing equivalent, antigen/mouse strain not stated in the legend) was “Superior in-vivo immunosuppressive properties”, the “% Reduction of response to PPD(OVA)” value [2] was 9% and the “efficacy in the CIA mouse model for rheumatoid arthritis” value [3] was “Efficacy”. The “efficacy in the EAE mouse model in terms of disease treatment, versus Arg compound” value ([4]; P69 at 125 nM compared to P82 at 250 nM) was “superior” and the “efficacy in the EAE mouse model for multiple sclerosis prevention” value [4] was “Efficacy”.

`CCCC[C@H](NC(=O)[C@@H]1Cc2ccccc2CN1C(=O)[C@@H](NC(=O)[C@H](CC1CCCCC1)NC(C)=O)C1CCN(C(=N)N)CC1)C(=O)N(C)Cc1ccccc1` [Compound P74, Ac-Cha-Gpg-Tic-Nle-N(Me)Bn] (Ac-[Cha][Gly(1-amidinopiperidin-4-yl)][Tic][Nle]-{NMe(benzyl)}) was tested, and the “% Reduction of response to HEL” value [1] was 51.6%, the “% Reduction of response to PPD(HEL)” value [1] was 12.8% and the “% Reduction of response to OVA” value [2] was 42.5%. The “% Reduction of response to PPD(OVA)” value [2] was 5.8%, the “efficacy in the CIA mouse model for rheumatoid arthritis” value [3] was “Efficacy” and the “efficacy in the EAE mouse model for multiple sclerosis prevention” value [4] was “Efficacy”.
